Assay [1] concerns the target wild type PRC2 (wtPRC2) complex (Homo sapiens (Human), UniProt O75530). Kind of assay: EED LC-MS assay. The note with it: EED LC-MS Qualified assay; read-out: (b) IC50. It counts as biochemical. The procedure: EED LC-MS Assay Representative compounds of the present invention were serially and separately diluted 3-fold in DMSO to obtain a total of eight or twelve concentrations. […] A 6 μL solution of 3 μM of the peptide substrate H3K27Me0 (histone H3[21-44]-biotin) in reaction buffer was added to initiate each reaction. […] The data were then fit to a dose response equation using the program Helios to get the IC50 values of the test compound.

Assay [2] deals with H3K27 methylation in G401 cell. Kind of assay: ELISA (H3K27 methylation) assay. It counts as cell-based. The conditions noted are these: Homo sapiens, G-401, ELISA Qualified assay, 48 h, read-out: (c) IC50. On the procedure: ELISA (H3K27 Methylation) Assay
Representative compounds of the present invention were serially and separately diluted 3-fold in DMSO to obtain a total of eight or twelve concentrations. Then the compounds were added to G401 cell cultured in 384-well plate at 1:500 dilution to obtain the highest concentration of 20 μM. The cells were further cultured for 48 h before ELISA procedure.
ELISA protocol: Cell lysates were transferred to the wells of a 384-well plate and the final volume was adjusted to 50 μL per well with PBS. The plate was sealed, centrifuged at 2,000 rpm for 2 min and incubated at 4° C. for about 16 h. The plate was washed with TBST buffer (1×TBS (10×TBS: 24.2 g Tris (Sigma, T6066), 80 g NaCl (Sigma, S3014) to 1 L of water and adjust pH to 7.6 with HCl) with 0.1% Tween-20). Blocking buffer (TBST, 5% BSA; 50 μL per well) was added and the plate was incubated for 1 h at rt. The blocking buffer was removed and primary antibody was added (30 μL per well). […] The primary antibody was incubated in the plate at rt for 1 h. The wells were washed with TBST and incubated with secondary antibody for 1 h at rt. […] After 1 h of incubation at rt, the wells were washed with TBST. […] The signal was read using a PerkinElmer Envision Reader. The H3K27 methylation readouts were normalized using H3 signal and then percentage inhibition was calculated against the samples treated with DMSO. The data were then fit to a dose response curve using the program Helios to get the IC50 values of the test compound.
A general note: In an ELISA, binding on a coated surface is turned into a signal by an enzyme label.

For the next assay, the target named is EED (1-441)-His protein (Homo sapiens (Human), UniProt O75530). Nature of the assay: EED-H3K27Me3 peptide competition binding assay by AlphaScreen. The conditions noted are these: EED Alphascreen binding Qualified assay. On the procedure: Then 4 μL of detection beads mix was added to the plate and incubate in the dark at the rt for 1 h. The final concentration of donor and acceptor beads was 10 μg/mL for each. […] The data were then fit to a dose response equation using the program Helios (Novartis) to get the IC50 values. […] Sebaugh, J. […] Each compound was counter screened to determine if it interfered with the AlphaScreen beads. […] The plates were then incubated for 1 h at rt in dark before being read on EnVison.
Chain of EED (1-441)-His protein (O75530 whole entry): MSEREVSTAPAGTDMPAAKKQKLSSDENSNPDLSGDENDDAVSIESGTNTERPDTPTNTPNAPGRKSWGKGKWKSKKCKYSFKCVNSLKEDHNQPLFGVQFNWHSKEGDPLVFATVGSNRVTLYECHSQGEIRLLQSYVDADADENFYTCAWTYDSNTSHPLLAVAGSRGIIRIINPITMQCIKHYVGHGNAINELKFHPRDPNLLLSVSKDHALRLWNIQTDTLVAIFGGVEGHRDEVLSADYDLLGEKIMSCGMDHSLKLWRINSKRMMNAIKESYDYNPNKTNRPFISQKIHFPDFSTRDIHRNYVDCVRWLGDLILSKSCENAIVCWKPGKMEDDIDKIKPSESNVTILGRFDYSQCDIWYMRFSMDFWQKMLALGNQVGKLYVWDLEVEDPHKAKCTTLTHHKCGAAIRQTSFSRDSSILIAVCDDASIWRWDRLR

For orientation: IC50 means the concentration needed to halve the response being measured.

Chain of wild type PRC2 (wtPRC2) complex (O75530 whole entry): as above
Chain of wild type PRC2 (wtPRC2) complex (Q15910 whole entry partner): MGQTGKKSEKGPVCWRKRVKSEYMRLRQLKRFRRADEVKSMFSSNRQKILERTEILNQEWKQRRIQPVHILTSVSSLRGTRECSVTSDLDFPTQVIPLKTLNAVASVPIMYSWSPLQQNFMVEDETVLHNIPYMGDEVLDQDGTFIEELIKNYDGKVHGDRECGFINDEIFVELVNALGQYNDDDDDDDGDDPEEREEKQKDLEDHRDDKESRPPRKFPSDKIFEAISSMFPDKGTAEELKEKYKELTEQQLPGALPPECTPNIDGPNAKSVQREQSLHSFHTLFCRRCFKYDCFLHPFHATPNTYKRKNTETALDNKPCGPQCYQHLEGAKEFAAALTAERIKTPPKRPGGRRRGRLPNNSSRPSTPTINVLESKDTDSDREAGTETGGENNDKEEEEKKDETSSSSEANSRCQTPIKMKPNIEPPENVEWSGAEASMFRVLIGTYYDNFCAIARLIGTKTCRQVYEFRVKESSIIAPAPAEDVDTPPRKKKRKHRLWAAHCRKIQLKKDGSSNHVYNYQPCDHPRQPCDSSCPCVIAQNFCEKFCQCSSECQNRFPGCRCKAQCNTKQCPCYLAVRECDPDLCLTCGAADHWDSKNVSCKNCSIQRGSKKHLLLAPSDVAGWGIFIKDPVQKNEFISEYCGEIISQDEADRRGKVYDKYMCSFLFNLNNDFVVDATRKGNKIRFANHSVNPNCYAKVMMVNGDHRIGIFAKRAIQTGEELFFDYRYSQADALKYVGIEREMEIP
Chain of wild type PRC2 (wtPRC2) complex (Q15022 whole entry partner): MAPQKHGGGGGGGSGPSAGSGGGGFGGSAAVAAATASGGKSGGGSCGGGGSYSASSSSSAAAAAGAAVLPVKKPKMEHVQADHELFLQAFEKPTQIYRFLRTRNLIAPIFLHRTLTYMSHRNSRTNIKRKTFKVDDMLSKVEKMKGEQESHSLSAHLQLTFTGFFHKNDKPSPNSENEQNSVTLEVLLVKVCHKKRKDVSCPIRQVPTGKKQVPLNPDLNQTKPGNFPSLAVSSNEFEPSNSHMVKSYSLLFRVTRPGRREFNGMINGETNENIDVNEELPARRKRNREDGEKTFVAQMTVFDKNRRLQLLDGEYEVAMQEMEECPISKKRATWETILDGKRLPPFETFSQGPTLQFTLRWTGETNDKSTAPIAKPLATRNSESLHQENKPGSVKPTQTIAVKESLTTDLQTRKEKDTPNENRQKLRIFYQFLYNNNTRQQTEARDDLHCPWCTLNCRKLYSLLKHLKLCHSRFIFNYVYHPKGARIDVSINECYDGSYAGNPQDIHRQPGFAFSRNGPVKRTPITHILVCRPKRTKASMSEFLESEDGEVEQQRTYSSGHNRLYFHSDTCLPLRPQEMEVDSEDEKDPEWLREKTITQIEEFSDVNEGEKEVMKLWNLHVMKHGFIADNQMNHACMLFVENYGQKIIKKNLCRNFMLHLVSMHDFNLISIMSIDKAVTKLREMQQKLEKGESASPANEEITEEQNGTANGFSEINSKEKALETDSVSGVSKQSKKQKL

As to `Cc1ncc(-c2cnc(NCc3c(F)ccc4c3CCO4)n3cnc(S(=O)(=O)c4ccccc4)c23)c(C)n1` [Example 15, 8-(2,4-dimethylpyrimidin-5-yl)-N-((5-fluoro-2,3-dihydrobenzofuran-4-yl)methyl)-1-(phenylsulfonyl)imidazo[1,5-c]pyrimidin-5-amine], the IC50 in assay [1] was determined as 0.0298 µM; in assay [2], 0.0078 µM; at EED (1-441)-His protein, 0.0152 µM.

Consider `CC(=O)c1ncn2c(NCc3c(F)ccc4c3CCO4)ncc(-c3cnc(C)nc3C)c12` [Example 16, 1-(8-(2,4-Dimethylpyrimidin-5-yl)-5-(((5-fluoro-2,3-dihydrobenzofuran-4-yl)methyl)amino)-imidazo[1,5-c]pyrimidin-1-yl)ethan-1-one], for which the IC50 in assay [1] was found to be 0.0175 µM; in assay [2] it was 0.0076 µM; at EED (1-441)-His protein it was 0.0091 µM.

Take `CN(C)Cc1ccc(-c2cnc(NCc3c(F)ccc4c3CCO4)n3cncc23)cc1` [Example 17, 8-(4-((dimethylamino)methyl)phenyl)-N-((5-fluoro-2,3-dihydrobenzofuran-4-yl)methyl)imidazo[1,5-c]pyrimidin-5-amine]: the results for the IC50 (in assay [1]; in assay [2]; on EED (1-441)-His protein) were 0.0257 µM, 0.0321 µM and 0.0126 µM, respectively.

Turning to `CN(C)S(=O)(=O)c1ccc(-c2cnc(NCc3c(F)ccc4c3CCO4)n3cncc23)cc1` [Example 18, 4-(5-(((5-fluoro-2,3-dihydrobenzofuran-4-yl)methyl)amino)imidazo[1,5-c]pyrimidin-8-yl)-N,N-dimethylbenzenesulfonamide], the IC50 in assay [1] was found to be 0.0151 µM; in assay [2] it was 0.046 µM; on EED (1-441)-His protein it was 0.0101 µM.

On to `CS(=O)(=O)c1ccc(-c2cnc(NCc3c(F)ccc4c3CCO4)n3cncc23)cc1` [Example 19, N-((5-fluoro-2,3-dihydrobenzofuran-4-yl)methyl)-8-(4-(methylsulfonyl)phenyl)imidazo[1,5-c]pyrimidin-5-amine], for which the IC50 in assay [1] amounted to 0.0104 µM; in assay [2], 0.0601 µM; on EED (1-441)-His protein, 0.0085 µM.

Take `Fc1ccc2c(c1CNc1ncc(-c3ccncc3)c3cncn13)CCO2` [Example 20, N-((5-fluoro-2,3-dihydrobenzofuran-4-yl)methyl)-8-(pyridin-4-yl)imidazo[1,5-c]pyrimidin-5-amine]: the IC50 was found to be 0.0441 µM in assay [1], 0.0811 µM in assay [2] and 0.0212 µM on EED (1-441)-His protein.

On to `Fc1ccc2c(c1CNc1ncc(-c3cccnc3F)c3cncn13)CCO2` [Example 21, N-((5-fluoro-2,3-dihydrobenzofuran-4-yl)methyl)-8-(2-fluoropyridin-3-yl)imidazo[1,5-c]pyrimidin-5-amine], for which the IC50 in assay [1] was determined as 0.0217 µM; in assay [2], 0.0354 µM; at EED (1-441)-His protein it was 0.0195 µM.

Take `CS(=O)(=O)c1ccc(-c2cnc(NCc3c(F)ccc4c3CCO4)n3cncc23)cn1` [Example 22, N-((5-fluoro-2,3-dihydrobenzofuran-4-yl)methyl)-8-(6-(methylsulfonyl)pyridin-3-yl)imidazo[1,5-c]pyrimidin-5-amine]: the IC50 in assay [1] was determined as 0.0098 µM; in assay [2], 0.0563 µM; at EED (1-441)-His protein, 0.0055 µM.

Turning to `NS(=O)(=O)c1ccc(-c2cnc(NCc3c(F)ccc4c3CCO4)n3cncc23)cc1` [Example 23, 4-(5-(((5-fluoro-2,3-dihydrobenzofuran-4-yl)methyl)amino)imidazo[1,5-c]pyrimidin-8-yl)benzenesulfonamide], the IC50 in assay [1] came out at 0.0129 µM; in assay [2], 0.0336 µM; on EED (1-441)-His protein, 0.0127 µM.

Regarding `Cc1cc(-c2cnc(NCc3c(F)ccc4c3CCO4)n3cncc23)ccn1` [Example 24, N-((5-fluoro-2,3-dihydrobenzofuran-4-yl)methyl)-8-(2-methylpyridin-4-yl)imidazo[1,5-c]pyrimidin-5-amine], the IC50 in assay [1] is 0.0265 µM; in assay [2], 0.0521 µM; on EED (1-441)-His protein, 0.0209 µM.

As to `CN1CCc2ccc(-c3cnc(NCc4c(F)ccc5c4CCO5)n4cncc34)cc2C1` [Example 26, N-((5-fluoro-2,3-dihydrobenzofuran-4-yl)methyl)-8-(2-methyl-1,2,3,4-tetrahydroisoquinolin-7-yl)imidazo[1,5-c]pyrimidin-5-amine], the IC50 in assay [1] came out at 0.0415 µM; in assay [2], 0.0541 µM; at EED (1-441)-His protein, 0.0503 µM.

`CS(=O)(=O)c1cccc(-c2cnc(NCc3c(F)ccc4c3CCO4)n3cncc23)c1` [Example 27, N-((5-fluoro-2,3-dihydrobenzofuran-4-yl)methyl)-8-(3-(methylsulfonyl)phenyl)imidazo[1,5-c]pyrimidin-5-amine]: the IC50 in assay [1] was 0.0235 µM; in assay [2], 0.043 µM; at EED (1-441)-His protein, 0.0241 µM.

Regarding `Fc1ccc2c(c1CNc1ncc(-c3cccnc3)c3cncn13)CCO2` [Example 28, N-((5-fluoro-2,3-dihydrobenzofuran-4-yl)methyl)-8-(pyridin-3-yl)imidazo[1,5-c]pyrimidin-5-amine], the IC50 in assay [1] was 0.0218 µM; in assay [2] it was 0.0506 µM; at EED (1-441)-His protein, 0.0199 µM.

Take `CS(=O)(=O)Nc1ccc(-c2cnc(NCc3c(F)ccc4c3CCO4)n3cncc23)cc1` [Example 29, N-(4-(5-(((5-fluoro-2,3-dihydrobenzofuran-4-yl)methyl)amino)imidazo[1,5-c]pyrimidin-8-yl)phenyl)methanesulfonamide]: the IC50 is 0.0329 µM in assay [1], 0.0734 µM in assay [2] and 0.0375 µM on EED (1-441)-His protein.

On to `CC(C)S(=O)(=O)c1ccc(-c2cnc(NCc3c(F)ccc4c3CCO4)n3cncc23)cc1` [Example 30, N-((5-fluoro-2,3-dihydrobenzofuran-4-yl)methyl)-8-(4-(isopropylsulfonyl)phenyl)imidazo[1,5-c]pyrimidin-5-amine], for which the half-maximal inhibitory concentration (IC50) amounted to 0.0111 µM in assay [1], 0.0195 µM in assay [2] and 0.0077 µM on EED (1-441)-His protein.

For the compound `N#Cc1ccc(-c2cnc(NCc3c(F)ccc4c3CCO4)n3cncc23)cn1` [Example 31, 5-(5-(((5-fluoro-2,3-dihydrobenzofuran-4-yl)methyl)amino)imidazo[1,5-c]pyrimidin-8-yl)picolinonitrile], the figures for the IC50 (in assay [1]; in assay [2]; at EED (1-441)-His protein) were 0.0209 µM, 0.0399 µM and 0.0144 µM, respectively.

Turning to `CN(C)CCc1ccc(-c2cnc(NCc3c(F)ccc4c3CCO4)n3cncc23)cn1` [Example 32, 8-(6-(2-(dimethylamino)ethyl)pyridin-3-yl)-N-((5-fluoro-2,3-dihydrobenzofuran-4-yl)methyl)imidazo[1,5-c]pyrimidin-5-amine], the IC50 in assay [1] amounted to 0.0247 µM; in assay [2], 0.0404 µM; on EED (1-441)-His protein it was 0.0087 µM.

Regarding `Cn1nccc1-c1cnc(NCc2c(F)ccc3c2CCO3)n2cncc12` [Example 33, N-((5-fluoro-2,3-dihydrobenzofuran-4-yl)methyl)-8-(1-methyl-1H-pyrazol-5-yl)imidazo[1,5-c]pyrimidin-5-amine], the IC50 in assay [1] was 0.0159 µM; in assay [2], 0.0221 µM; on EED (1-441)-His protein it was 0.0075 µM.

As to `OCCc1ccc(-c2cnc(NCc3c(F)ccc4c3CCO4)n3cncc23)cn1` [Example 34, 2-(5-(5-(((5-fluoro-2,3-dihydrobenzofuran-4-yl)methyl)amino)imidazo[1,5-c]pyrimidin-8-yl)pyridin-2-yl)ethan-1-ol], the IC50 in assay [1] was 0.0401 µM; in assay [2], 0.0595 µM; on EED (1-441)-His protein, 0.0217 µM.

With `Fc1cc(-c2cnc(NCc3c(F)ccc4c3CCO4)n3cncc23)ccn1` [Example 35, N-((5-fluoro-2,3-dihydrobenzofuran-4-yl)methyl)-8-(2-fluoropyridin-4-yl)imidazo[1,5-c]pyrimidin-5-amine], the IC50 in assay [1] turned out to be 0.026 µM; in assay [2], 0.0744 µM; on EED (1-441)-His protein it was 0.0155 µM.

On to `Cc1cnccc1-c1cnc(NCc2c(F)ccc3c2CCO3)n2cncc12` [Example 36, N-((5-fluoro-2,3-dihydrobenzofuran-4-yl)methyl)-8-(3-methylpyridin-4-yl)imidazo[1,5-c]pyrimidin-5-amine], for which the figures for the IC50 (in assay [1]; in assay [2]; at EED (1-441)-His protein) were 0.0179 µM, 0.0513 µM and 0.0076 µM, respectively.

The values above are taken from patent US10676479B2, “Imidazolepyridine compounds and uses thereof” (Novartis AG, priority 2016, dated 2020).
